Reference: ChEMBL document CHEMBL5518240 (J Med Chem, 2024)
The source made the active and inactive calls. The calls are words filed in the database; no cut-off is given here.

What was measured:
[1] = test system: VCaP; experiment: Antiproliferative activity against AR positive human VCaP cells assessed inhibition of cell growth measured after 4 days by CellTiter-Glo Luminescent cell viability assay; format: functional, cell-based; conditions: 96 h
[2] = test system: CWR22R; experiment: Antiproliferative activity against AR positive human 22Rv1 cells assessed inhibition of cell growth measured after 4 days by CellTiter-Glo Luminescent cell viability assay; format: functional, cell-based; conditions: 22Rv1, 96 h
[3] = test system: LNCaP; experiment: Antiproliferative activity against AR positive human LNCaP cells assessed inhibition of cell growth measured after 4 days by CellTiter-Glo Luminescent cell viability assay; format: functional, cell-based; conditions: 96 h
[4] = test system: VCaP; experiment: Reduction in KLK3 gene expression in AR positive human VCaP cells assessed as reduction in mRNA level at 1000 nM measured after 6 hrs by qRT-PCT analysis; format: functional, cell-based
[5] = test system: VCaP; experiment: Reduction in AR gene expression in AR positive human VCaP cells assessed as reduction in mRNA level at 1000 nM measured after 6 hrs by qRT-PCT analysis; format: functional, cell-based
[6] = test system: VCaP; experiment: Reduction in c-Myc gene expression in AR positive human VCaP cells assessed as reduction in mRNA level at 1000 nM measured after 6 hrs by qRT-PCT analysis; format: functional, cell-based
[7] = test system: LNCaP; experiment: Reduction in KLK3 gene expression in AR positive human LNCaP cells assessed as reduction in mRNA level at 1000 nM measured after 6 hrs by qRT-PCT analysis; format: functional, cell-based
[8] = test system: LNCaP; experiment: Reduction in AR gene expression in AR positive human LNCaP cells assessed as reduction in mRNA level at 1000 nM measured after 6 hrs by qRT-PCT analysis; format: functional, cell-based
[9] = test system: LNCaP; experiment: Reduction in c-Myc gene expression in AR positive human LNCaP cells assessed as reduction in mRNA level at 1000 nM measured after 6 hrs by qRT-PCT analysis; format: functional, cell-based
[10] = test system: CWR22R; experiment: Reduction in KLK3 gene expression in AR positive human 22Rv1 cells assessed as reduction in mRNA level at 1000 nM measured after 6 hrs by qRT-PCT analysis; format: functional, cell-based
[11] = test system: CWR22R; experiment: Reduction in AR gene expression in AR positive human 22Rv1 cells assessed as reduction in mRNA level at 1000 nM measured after 6 hrs by qRT-PCT analysis; format: functional, cell-based
[12] = test system: CWR22R; experiment: Reduction in c-Myc gene expression in AR positive human 22Rv1 cells assessed as reduction in mRNA level at 1000 nM measured after 6 hrs by qRT-PCT analysis; format: functional, cell-based
[13] = test system: VCaP; experiment: Antitumor activity against human VCaP cells xenografted in CB17 SCID mouse model assessed as tumor growth inhibition at 30 mg/kg, po qd scheduled 5 days in a week measured on day 63; format: functional; conditions: 1512 h, time 63 day, read-out: TGI
[14] = molecular target: Bromodomain-containing protein 4 (Homo sapiens, UniProt O60885); experiment: Binding affinity to BRD4 (unknown origin) by SPR assay
[15] = test system: VCaP; experiment: Antitumor activity against human VCaP cells xenografted in CB17 SCID mouse model assessed as tumor growth inhibition at 20 mg/kg, po qd scheduled 5 days in a week measured on day 63; format: functional; conditions: 1512 h, time 63 day, read-out: TGI
[16] = test system: VCaP; experiment: Reduction in AR gene expression in AR positive human VCaP cells assessed as reduction in mRNA level at 100 nM measured after 6 hrs by qRT-PCT analysis relative to control; format: functional, cell-based
[17] = test system: VCaP; experiment: Reduction in c-Myc gene expression in AR positive human VCaP cells assessed as reduction in mRNA level at 100 nM measured after 6 hrs by qRT-PCT analysis relative to control; format: functional, cell-based
[18] = test system: LNCaP; experiment: Reduction in c-Myc gene expression in AR positive human LNCaP cells assessed as reduction in mRNA level at 100 nM measured after 6 hrs by qRT-PCT analysis relative to control; format: functional, cell-based
[19] = test system: LNCaP; experiment: Reduction in AR gene expression in AR positive human LNCaP cells assessed as reduction in mRNA level at 100 nM measured after 6 hrs by qRT-PCT analysis relative to control; format: functional, cell-based
[20] = test system: CWR22R; experiment: Reduction in c-Myc gene expression in AR positive human 22Rv1 cells assessed as reduction in mRNA level at 100 nM measured after 6 hrs by qRT-PCT analysis relative to control; format: functional, cell-based
[21] = test system: CWR22R; experiment: Reduction in AR gene expression in AR positive human 22Rv1 cells assessed as reduction in mRNA level at 100 nM measured after 6 hrs by qRT-PCT analysis relative to control; format: functional, cell-based

SMILES | IC50 [1] [nM] | IC50 [2] [nM] | IC50 [3] [nM] | Activity [4] | Activity [5] | Activity [6] | Activity [7] | Activity [8] | Activity [9] | Activity [10] | Activity [11] | Activity [12] | also measured
CC(=O)N1CCc2c(c(N3CCCc4cc(-c5cnn(C)c5)c(C(F)F)cc43)nn2C2CCOCC2)C1 | 216 | > 1000 | 7000 | Active | Active | Active | Active | Active | Active | Active | Active | Active | inhibition in vivo at 30 mg/kg [13]: 46%
CO[C@H]1CC[C@H](n2c([C@@H]3CCCC(=O)N3c3ccc(F)c(F)c3)nc3cc(-c4c(C)noc4C)ccc32)CC1 [INOBRODIB] | 53.6 | 184 | 412 | Active | Active | Active | Active | Active | Active | Active | Active | Active | Kd [14]: 222 nM; inhibition in vivo at 20 mg/kg [15]: 42%
N#Cc1ccc(O[C@H]2CC[C@H](NC(=O)c3ccc(N4CCC(CN5CCN(c6cc7c(cc6F)C(=O)N(C6CCC(=O)NC6=O)C7=O)CC5)CC4)nn3)CC2)cc1Cl (stereo partly specified) [BAVDEGALUTAMIDE] | 219 | 316 | 124 | – | – | – | – | – | – | – | – | – | Activity [16]: Active; Activity [17]: Active; Activity [18]: inactive; Activity [19]: inactive; Activity [20]: inactive; Activity [21]: inactive
